In patent publication US9193717B2, “Mineralocorticoid receptor antagonists” (Merck Sharp & Dohme Corp., priority 2011, dated 2015):

These compounds were tested against T1, full-length human Mineralocorticoid Receptor (MR) (Homo sapiens, UniProt P08235) (assay: human MR NH Pro assay (PathHunter Protein:Protein interaction assay, MR antagonism)). Conditions: PathHunter CHO-K1 cells that overexpress human MR; aldosterone (0.3 nM), 6 hours at 37° C.; antagonist mode; read-out: IC50 rating.
T1 construct: full-length human Mineralocorticoid Receptor (MR); host or cells: PathHunter CHO-K1 cells
T1 sequence (P08235 1-984): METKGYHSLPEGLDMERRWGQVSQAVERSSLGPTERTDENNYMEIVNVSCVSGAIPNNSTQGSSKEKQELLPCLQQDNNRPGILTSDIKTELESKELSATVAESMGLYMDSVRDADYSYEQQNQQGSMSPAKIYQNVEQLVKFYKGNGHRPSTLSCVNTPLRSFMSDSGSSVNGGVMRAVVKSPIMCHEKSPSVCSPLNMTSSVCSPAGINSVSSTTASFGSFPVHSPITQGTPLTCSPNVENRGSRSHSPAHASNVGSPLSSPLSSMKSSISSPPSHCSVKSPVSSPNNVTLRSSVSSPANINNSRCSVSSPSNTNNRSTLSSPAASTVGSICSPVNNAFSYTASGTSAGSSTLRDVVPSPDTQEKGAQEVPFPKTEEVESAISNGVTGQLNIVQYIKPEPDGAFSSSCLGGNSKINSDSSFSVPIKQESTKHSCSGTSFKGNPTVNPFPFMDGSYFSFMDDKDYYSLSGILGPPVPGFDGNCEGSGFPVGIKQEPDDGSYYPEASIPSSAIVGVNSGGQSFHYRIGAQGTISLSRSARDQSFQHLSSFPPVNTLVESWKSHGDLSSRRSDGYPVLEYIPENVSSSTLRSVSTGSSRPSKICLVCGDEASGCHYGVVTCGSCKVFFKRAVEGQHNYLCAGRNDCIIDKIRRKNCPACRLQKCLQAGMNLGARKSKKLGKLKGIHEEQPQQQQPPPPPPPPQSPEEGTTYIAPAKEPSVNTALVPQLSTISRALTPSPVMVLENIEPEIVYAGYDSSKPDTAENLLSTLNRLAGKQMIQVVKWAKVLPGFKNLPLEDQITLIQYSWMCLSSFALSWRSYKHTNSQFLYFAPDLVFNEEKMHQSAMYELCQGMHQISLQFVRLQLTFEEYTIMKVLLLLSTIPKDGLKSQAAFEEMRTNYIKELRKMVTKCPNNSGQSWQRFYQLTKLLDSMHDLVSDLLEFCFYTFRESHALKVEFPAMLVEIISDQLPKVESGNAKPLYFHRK
Assay type: cell-based
Protocol: The activity of the compounds of the present invention regarding mineralocorticoid receptor antagonism was evaluated using the following assay.
Assessment of Mr Potency in HMR NH Pro Assay
The human MR NH Pro assay is a commercially available PathHunter™ Protein:Protein interaction assay (DiscoveRx; http://www.discoverx.com/nhrs/prod-nhrs.php) that measures the ability of compounds to antagonize full-length human Mineralocorticoid Receptor (MR) binding to a coactivator peptide. PathHunter™ CHO—K1 cells that overexpress human MR (Cat #93-0456C2, Lot No: 09B0913) were cultured in growth media (F12K w/Glutamine and phenol red (Gibco 11765-047) supplemented with 10% HI FBS (Gibco 16000); 0.25 mg/ml Hygromycin in PBS (Invitrogen 10687-010, 50 mg/ml); 100 I.U./mL and 100 μg/mL Pen/Strep (Gibco 15140-122); 0.6 mg/mL Geneticin).
Compounds were assessed for MR antagonist activity by incubating the cells with a titrating dose of compound in F12K w/Glutamine and phenol red culture media (Invitrogen 11765-047) supplemented with 1% Charcoal/Dextran Treated FBS (Hyclone #SH30068.01) and aldosterone (0.3 nM) for 6 hours at 37° C. […] Growth Media: • F12K w/Glutamine and phenol red (Gibco 11765-047) • 10% HI FBS (Gibco 16000) • 0.25 mg/ml Hygromycin in PBS (Invitrogen 10687-010, 50 mg/ml) • 100 I.U./mL and 100 μg/mL Pen/Strep (Gibco 15140-122) • 0.6 mg/mL Geneticin (Gibco 10131, 50 mg/ml) • 2. Assay Media: • F12K w/Glutamine and phenol red (Invitrogen 11765-047) • 1% Charcoal/Dextran Treated FBS (Hyclone #SH30068.01) • 3. 3× PathHunter Detection Reagents (Cat#93-0001) (need ˜6 ml/plate). […] Control Agonist:Aldosterone:Sigma cat# A9477 • Prepare stock solution-10 μM in DMSO kept at −20° C. • for assay, dilute in assay media to 1.8 or 6 nM (6× of final concentration=about 0.3 nM to about 1.0 nM) • 5. Cell line: PathHunter CHO—K1 MR cells Cat #93-0456C2, Lot No: 09B0913, from operation liquid nitrogen stock. • 6. Control Antagonist:Spironolactone:Sigma #S-3378 and Eplerenone Sigma #107724-20-9 (10 mM stock concentration also prepared in DMSO and stored at −20° C.). • Methods: • Assay Set up and Calculations: • 1. Cells were grown in F12+FBS+Hygromycin+pen/strep+Genetin • 2. Cells were collected with 0.05% trypsin and the cell suspension was spun and resuspended in a volume of F12+1.5% CD-FBS and counted. • 3. The cells were resuspended to 4×10^5 cells/mL. • 4. Cells were (25 μL/well) added to the wells of a 384 well plate. • 5. The plate was then incubated at 37° C. over night in a humidified incubator with 5% CO2. • 6. Test compounds were titrated starting at 4.4 mM, 10-point titration in 1:3 dilution. • 7. Aldosterone was diluted in assay media to 1.8 nM or 6 nM from 10 μM stock (final concentration to be about 0.3 nM to about 1.0 nM). • Protocol for 384 Well Plate Format: 6 Hr Treatment: • 1. Plated 10K exponentially growing cells/well (25 μL) resuspended in assay media to each well using the Multidrop (Thermo Electron) (use white wall, clear bottom assay plates (Costar #3570) and incubate overnight at 37° C., 5% CO2. • 2. 0.25 μL 120× test compound (final DMSO concentration should be <1%) was added to each well n=2, 10 point titrations starting at 36.7 μM final concentration. • 3. 5 μL 6× agonist (final aldosterone concentration should be about 0.3 nM to about 1.0 nM) was added to all wells using the PlateMate Plus.
(ThermoFisher) (except those wells in columns 23 and 24) • 4. 5 μL of assay media was added to all wells in column 23 and 24. • 5. Plates were incubated 6 hrs at 37° C., 5% CO2. • 6. 15 μL 3× DiscoveRx detection reagent was added to each well. • 7. Plates were incubated for 1 hour at room temperature (plates stored in the dark). • 8. Plates were read on Envision (PerkinElmer) luminesence plate reader and analyzed using ADA.

IC50 [nM] | Structure (SMILES)
100 to 500 | C[C@H](c1ccc(F)cc1)N1C(=O)O[C@](Cc2ccccc2)(c2nc3cc(Cl)ccc3[nH]2)C1=O [Compound 1, (5R)-5-Benzyl-5-(5-chloro-1H-benzimidazol-2-yl)-3-[(1R)-1-(4-fluorophenyl)ethyl]-1,3-oxazolidine-2,4-dione]
100 to 500 | O=C1O[C@](Cc2ccc(F)cc2)(c2nc3ccc(Cl)cc3[nH]2)C(=O)N1[C@@H]1CCc2ccccc21 [Compound 17, 5-(6-Chloro-1H-benzimidazol-2-yl)-3-[(1R)-2,3-dihydro-1H-inden-1-yl]-5-(4-fluorobenzyl)-1,3-oxazolidine-2,4-dione]
100 to 500 | C[C@H](c1ccc(F)cc1)N1C(=O)O[C@](Cc2ccccc2)(c2nc3ccc(CN4CCOCC4)cc3[nH]2)C1=O [Compound 10, (5R)-5-Benzyl-3-[(1R)-1-(4-fluorophenyl)ethyl]-5-[5-(morpholinylmethyl)-1H-benzimidazol-2-yl]-1,3-oxazolidine-2,4-dione]

Second part, the compound before the results:

Structure (SMILES) | IC50 [nM]
C[C@H](c1ccc(F)cc1)N1C(=O)O[C@](Cc2ccccc2)(c2nc3cc(-c4cccnc4)ccc3[nH]2)C1=O [Compound 25, (5R)-5-Benzyl-3-[(1R)-1-(4-fluorophenyl)ethyl]-5-(5-pyridin-3-yl-1H-benzimidazol-2-yl)-1,3-oxazolidine-2,4-dione] | < 100
C[C@H](c1ccc(F)cc1)N1C(=O)O[C@](Cc2ccccc2)(c2nc3c(-c4cnoc4)cccc3[nH]2)C1=O [Compound 30, (5R)-5-Benzyl-3-[(1R)-1-(4-fluorophenyl)ethyl]-5-(4-isoxazol-4-yl-1H-benzimidazol-2-yl)-1,3-oxazolidine-2,4-dione] | 500 to 2000
C[C@H](c1ccc(F)cc1)N1C(=O)O[C@](Cc2ccccc2)(c2nc3cc(-c4cnn(C)c4)ccc3[nH]2)C1=O [Compound 24, (5R)-5-Benzyl-3-[(1R)-1-(4-fluorophenyl)ethyl]-5-[5-(1-methyl-1H-pyrazol-4-yl)-1H-benzimidazol-2-yl]-1,3-oxazolidine-2,4-dione] | < 100
C[C@H](c1ccc(F)cc1)N1C(=O)O[C@](Cc2ccccc2)(c2nc3cc(C(F)(F)F)ccc3[nH]2)C1=O [Compound 8, (5R)-5-Benzyl-3-[(1R)-1-(4-fluorophenyl)ethyl]-5-[5-(trifluoromethyl)-1H-benzimidazol-2-yl]-1,3-oxazolidine-2,4-dione] | < 100
C[C@H](c1ccc(F)cc1)N1C(=O)O[C@](Cc2ccccc2)(c2nc3c(Cl)cc(Cl)cc3[nH]2)C1=O [Compound 19, (5R)-5-Benzyl-5-(4,6-dichloro-1H-benzimidazol-2-yl)-3-[(1R)-1-(4-fluorophenyl)ethyl]-1,3-oxazolidine-2,4-dione] | < 100
C[C@H](c1ccc(F)cc1)N1C(=O)O[C@](Cc2ccccc2)(c2nc3ccccc3[nH]2)C1=O [Compound 3, (5R)-5-(1H-Benzimidazol-2-yl)-5-benzyl-3-[(1R)-1-(4-fluorophenyl)ethyl]-1,3-oxazolidine-2,4-dione] | 100 to 500
